This passage reports Ki results from US5521196A, “5-HT1F agonists for the treatment of migraine” (Eli Lilly and Company, priority 1994, dated 1996).

Counter-ions that a name gives are not always drawn.

One assay has as its target T1, 5-HT1F receptor (Homo sapiens, UniProt P30939).
T1 sequence (P30939 1-366): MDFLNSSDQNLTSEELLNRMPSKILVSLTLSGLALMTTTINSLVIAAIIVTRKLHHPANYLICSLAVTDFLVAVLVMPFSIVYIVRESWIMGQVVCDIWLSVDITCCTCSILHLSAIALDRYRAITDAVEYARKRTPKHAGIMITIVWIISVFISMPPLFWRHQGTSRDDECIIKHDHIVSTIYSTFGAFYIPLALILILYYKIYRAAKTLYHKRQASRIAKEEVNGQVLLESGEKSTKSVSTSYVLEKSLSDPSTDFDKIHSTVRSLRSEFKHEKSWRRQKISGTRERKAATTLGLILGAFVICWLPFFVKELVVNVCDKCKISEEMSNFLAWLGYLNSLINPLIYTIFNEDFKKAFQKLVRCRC
The assay can be described thus: biochemical. To be noted: Table I; displacement of 4.5-5.5 nM [3H]5-HT, 37° C., 30 minutes; read-out: 5-HT1F BINDING Ki.
Take `Cn1cc(CCN2CCC(c3c[nH]c4ccccc34)CC2)cn1` [Example 1, 3-<1-<2-<1-methyl-1H-pyrazol-4-yl>ethyl>-4-piperidinyl>-1H-indolehydrochloride]: the Ki (commonly a measure of affinity in units of concentration, obtained from inhibition or displacement) is 5.7 nM.
With `Cn1cc(CCN2CCC(c3c[nH]c4ccc(Cl)cc34)CC2)cn1` [Example 3, 5-chloro-3-<1-<2-<1-methyl-1H-pyrazol-4-yl>ethyl>-4-piperidinyl>-1H-indolehydrochloride], the Ki is 1.7 nM.
Turning to `Cn1cc(CCN2CCC(c3c[nH]c4ccc(Br)cc34)CC2)cn1` [Example 4, 5-bromo-3-<1-<2-<1-methyl-1H-pyrazol-4-yl>ethyl>-4-piperidinyl>-1H-indoleoxalate], the Ki is 3 nM.
As to `COc1ccc2[nH]cc(C3CCN(CCc4cnn(C)c4)CC3)c2c1` [Example 5, 5-methoxy-3-<1-<2-<1-methyl-1H-pyrazol-4-yl>ethyl>-4-piperidinyl>-1H-indoleoxalate], the Ki amounted to 9.9 nM.
With `CC(C)n1cc(CCN2CCC(c3c[nH]c4ccccc34)CC2)cn1` [Example 6, 3-<1-<2-<1-(1-methylethyl)-1H-pyrazol-4-yl>ethyl>-4-piperidinyl>-1H-indolehydrochloride], the Ki came to 4.5 nM.
On to `CC(C)n1cc(CCN2CCC(c3c[nH]c4ccc(F)cc34)CC2)cn1` [Example 7, 5-fluoro-3-<1-<2-<1-(1-methylethyl)-1H-pyrazol-4-yl>ethyl>-4-piperidinyl>-1H-indole oxalate], for which the Ki was 4.9 nM.
As for `CC(C)n1cc(CCN2CCC(c3c[nH]c4ccc(Cl)cc34)CC2)cn1` [Example 8, 5-chloro-3-<1-<2-<1-(1-methylethyl)-1H-pyrazol-4-yl>ethyl>-4-piperidinyl>-1H-indole], the Ki was determined as 4.1 nM.
For the compound `CC(C)n1cc(CCN2CCC(c3c[nH]c4ccc(Br)cc34)CC2)cn1` [Example 9, 5-bromo-3-<1-<2-<1-(1-methylethyl)-1H-pyrazol-4-yl>ethyl>-4-piperidinyl>-1H-indole oxalate], the Ki stood at 5 nM.
On to `COc1ccc2[nH]cc(C3CCN(CCc4cnn(C(C)C)c4)CC3)c2c1` [Example 10, 5-methoxy-3-<1-<2-<1-(1-methylethyl)-1H-pyrazol-4-yl>ethyl>-4-piperidinyl>- 1H-indole oxalate], for which the Ki worked out at 6.2 nM.
The same measure, in the same setting: next, `CCCn1cc(CCN2CCC(c3c[nH]c4ccccc34)CC2)cn1` [Example 12, 3-<1-<2-<1-propyl-1H-pyrazol-4-yl>ethyl>-4-piperidinyl>-1-H-indole oxalate]: 3.3 nM.
Take `CCCn1cc(CCN2CCC(c3c[nH]c4ccc(F)cc34)CC2)cn1` [Example 13, 5-fluoro-3-<1-<2-<1-propyl-1H-pyrazol-4-yl>ethyl>-4-piperidinyl>-1H-indoleoxalate]: the Ki worked out at 6 nM.
On to `CCCn1cc(CCN2CCC(c3c[nH]c4ccc(Cl)cc34)CC2)cn1` [Example 14, 5-chloro-3-<1-<2-<1-propyl-1H-pyrazol-4-yl>ethyl>-4-piperidinyl>-1H-indoleoxalate], for which the Ki was 5.7 nM.
Regarding `CCCn1cc(CCN2CCC(c3c[nH]c4ccc(Br)cc34)CC2)cn1` [Example 15, 5-bromo-3-<1-<2-<1-propyl-1H-pyrazol-4-yl>ethyl>-4-piperidinyl>-1H-indoleoxalate], the Ki worked out at 6.6 nM.
On the same count and under the same terms, in the case of `c1ccc2c(C3CCN(CCc4cnn(C5CCCCC5)c4)CC3)c[nH]c2c1` [Example 16, 3-<1-<2-<1-cyclohexyl-1H-pyrazol-4-yl>ethyl>-4-piperidinyl>-1H-indoleoxalate] it was 43.8 nM; in that of `Fc1ccc2[nH]cc(C3CCN(CCc4cnn(C5CCCCC5)c4)CC3)c2c1` [Example 17, 5-fluoro-3-<1-<2-<1-cyclohexyl-1H-pyrazol-4-yl>ethyl>-4-piperidinyl>-1H-indole oxalate], 33.2 nM.

The assay is the same for the next values; noted with them: read-out: 5-HT1F BINDING Ki.
On to `CC(C)n1cc(CCN2CCC(c3c[nH]c4ccc(C(N)=O)cc34)CC2)cn1` [Example 11, 5-carboxamido-3-<1-<2-<1-(1-methylethyl)-1H-pyrazol-4-yl>ethyl>-4-piperidinyl>-1H-indole], for which the Ki came to 10.3 nM.
